Experimental data published in patent US9320274B2, “Synergistic weed control from applications of aminocyclopyrachlor and clopyralid” (Dow AgroSciences LLC, priority 2012, dated 2016).

Experiments:
[1] = tested on: calvary clover (Medicago arabica, MEDAB); assay: Field trial, post-emergence foliar application, weed control of calvary clover; assay type: in vivo; settings: 27 days, applied alone
Excerpt: The (a) aminocyclopyrachlor or an agriculturally acceptable salt or ester thereof is mixed with or applied in combination with (b) clopyralid or an agriculturally acceptable salt or ester thereof in an amount sufficient to induce a synergistic herbicidal effect. […] As described in the Herbicide Handbook of the Weed Science Society of America, Ninth Edition, 2007, p. 429, “'synergism' [is] an interaction of two or more factors such that the effect when combined is greater than the predicted effect based on the response to each factor applied separately.” Synergistic in the herbicide context can mean that the use of (a) and (b) as defined above results in an increased weed control effect compared to the weed control effects that are possible with the use of (a) or (b) alone. In some embodiments, the damage or injury to the undesired vegetation caused by the compositions and methods disclosed herein is evaluated using a scale from 0% to 100%, when compared with the untreated control vegetation, wherein 0% indicates no damage to the undesired vegetation and 100% indicates complete destruction of the undesired vegetation. […] 22 (1967) Field trials were conducted with applications made to established grassland with naturally occurring weed populations. The target plants were treated with postemergence foliar applications when they reached three to five inches tall. All treatments were applied using a randomized complete block trial design, with 4 replications per treatment. Treatments consisted of aminocyclopyrachlor in acid form and clopyralid-olamine, each in water and applied alone or in combination. Spray solutions were prepared using an appropriate amount of dilution to form a 2 L aqueous spray solution with active ingredients in single and two way combinations. Formulated compounds were applied to the plant material with a backpack sprayer equipped with 8003 nozzles calibrated to deliver 187 L/ha at a spray height of 18 inches (43 centimeters (cm)) above average plant canopy. […] The results were measured at 7 days and 27 days after the first application of the compositions. […]

[2] = tested on: buckhorn plantain (Plantago lanceolata, PLALA); assay: Field trial, post-emergence foliar application, weed control of buckhorn plantain; assay type: in vivo; settings: applied alone
Excerpt: The (a) aminocyclopyrachlor or an agriculturally acceptable salt or ester thereof is mixed with or applied in combination with (b) clopyralid or an agriculturally acceptable salt or ester thereof in an amount sufficient to induce a synergistic herbicidal effect. […] As described in the Herbicide Handbook of the Weed Science Society of America, Ninth Edition, 2007, p. 429, “'synergism' [is] an interaction of two or more factors such that the effect when combined is greater than the predicted effect based on the response to each factor applied separately.” Synergistic in the herbicide context can mean that the use of (a) and (b) as defined above results in an increased weed control effect compared to the weed control effects that are possible with the use of (a) or (b) alone. In some embodiments, the damage or injury to the undesired vegetation caused by the compositions and methods disclosed herein is evaluated using a scale from 0% to 100%, when compared with the untreated control vegetation, wherein 0% indicates no damage to the undesired vegetation and 100% indicates complete destruction of the undesired vegetation. […] 22 (1967) Field trials were conducted with applications made to established grassland with naturally occurring weed populations. The target plants were treated with postemergence foliar applications when they reached three to five inches tall. All treatments were applied using a randomized complete block trial design, with 4 replications per treatment. Treatments consisted of aminocyclopyrachlor in acid form and clopyralid-olamine, each in water and applied alone or in combination. Spray solutions were prepared using an appropriate amount of dilution to form a 2 L aqueous spray solution with active ingredients in single and two way combinations. Formulated compounds were applied to the plant material with a backpack sprayer equipped with 8003 nozzles calibrated to deliver 187 L/ha at a spray height of 18 inches (43 centimeters (cm)) above average plant canopy. The treated plants were buckhorn plantain (Plantago lanceolata, PLALA) and […] clover (Medicago arabica, MEDAB). The treated plots and control plots were rated blind at various intervals after application. Ratings were based on a scale of 0-100%, as discussed above, wherein 0% indicates no damage to the undesired vegetation and 100% indicates complete destruction of the undesired vegetation Colby's equation was used to determine the herbicidal effects expected from the mixtures, as described above. The results were measured at 7 days and 27 days after the first application of the compositions. […] The herbicide tank mix combinations tested, application rates and ratios employed, plant species tested, and results are given below.

Compound | Mean % weed control ([1]; 35 g ae/ha) | Mean % weed control ([1]; 70 g ae/ha) | Mean % weed control ([2]; 7 days, 35 g ae/ha) | Mean % weed control ([2]; 27 days, 70 g ae/ha) | Mean % weed control ([1]; 18 g ae/ha) | Mean % weed control ([2]; 7 days, 18 g ae/ha) | Mean % weed control ([2]; 27 days, 18 g ae/ha) | Mean % weed control ([2]; 27 days, 35 g ae/ha)
O=C(O)c1nc(Cl)ccc1Cl [Clopyralid-olamine, clopyralid-olamine] | 13% | 30% | 18% | 28% | – | – | – | –
Nc1nc(C2CC2)nc(C(=O)O)c1Cl [Aminocyclopyrachlor, 6-amino-5-chloro-2-cyclopropylpyrimidine-4-carboxylic acid] | – | – | – | – | 27.5% | 18.75% | 22.5% | 35%
